From article PMC9243000 (Cell Discovery, 2022)
Where two headings read alike, the source gives them in different places. Positions of bridges follow the written chain, without caps; N, C: chain ends. Residues, ends and D or L forms follow the SMILES beside them. Chains are numbered I, II in the order given. No end group written: not given here.

Experiments:
SARS-CoV-2 (HKU001a) = conditions: for 50% inhibitory concentration IC50: HKU001a, 18 h; for antiviral activity in the low salt condition: low salt (30 mM, PBS/5), plaque reduction assay
[1] = tested on: spike-ACE2-mediated cell fusion in 293T cells; format: cell-based; conditions: 4H30 40 μM, bafilomycin A1 50 nM, remdesivir 80 μM; 6 h post coculture
[2] = tested on: fusion between 293T-Spike and Calu-3 cells; format: cell-based
[3] = tested on: endosomal acidification in VeroE6 cells; experiment: Endosomal acidification assay; format: cell-based; conditions: 4H30 25 μg/mL, bafilomycin A1 50 nM, pH-sensitive dye
Experimental: Endosomal acidification was detected with a pH-sensitive dye (pHrodo green dextran, Invitrogen, Cat^# P35365) according to the manufacturer’s instructions as previously described but with slight modification. First, VeroE6 cells were treated with DMEM, 4H30 (25.0 μg/mL), or bafilomycin A1 (50.0 nM) at 4 °C for 15 min. Second, VeroE6 cells were added with 100 μg/mL of pH-sensitive dye and DAPI and then incubated at 4 °C for 15 min. Before taking images, cells were further incubated at 37 °C for 15 min and then cells were washed twice with PBS. Finally, PBS was added to cells and images were taken immediately with a confocal microscope (Carl Zeiss LSM 800, Germany).
Supplementary Fig. S7. 4H30 could inhibit endosomal acidification in VeroE6 cells. VeroE6 cells were treated with pH-sensitive dye (green in low pH endosomes) and the indicated inhibitor 4H30 (25 μg/mL), bafilomycin A1 (BA1, 50 nM) or DMEM. Nuclei were stained as blue. Cell only without treatment was the negative control (Neg). Representative live-cell images were taken by confocal microscope. Experiments were repeated with two independent biological samples. […]

SARS-CoV-2 [4] = conditions: cited from earlier work
[5] = tested on: SARS-CoV-2 (B.1.617.2, Delta); experiment: Post-exposure antiviral assay in hamsters, Delta; format: in vivo; conditions: for syncytia formation in hamster lungs: Delta, compared with mock-treated hamsters; for inhibition of viral replication in hamster lungs (PFU/lung) / lung inflammation: in vivo, hamster
[6] = Cytotoxicity MTT assay, Calu-3; format: cell-based; conditions: human, Calu-3 cells, 24 h at 37 °C, DMEM with 1% FBS, n = 3, read-out: 50% toxicity concentration (TC50)
Experimental: (§1) Cytotoxicity of peptides was determined by the detection of 50% cytotoxic concentration (CC50) using a tetrazolium-based colorimetric MTT assay. Briefly, cells were seeded in a 96-well cell culture plate at an initial density of 4 × 10^4 cells per well in DMEM supplemented with 10% FBS and incubated overnight. Cell culture media were removed and then DMEM supplemented with various concentrations of peptides and 1% FBS were added to each well. After 24 h incubation at 37 °C, MTT solution (5 mg/mL, 10 μL per well) was added to each well for incubation at 37 °C for 4 h. Then, 100 μL of 10% SDS in 0.01 M HCl was added to each well. After further incubation at room temperature with shaking overnight, the plates were read at OD570 using VictorTM X3 Multilabel Reader (PerkinElmer, USA). Cell culture wells without peptides were used as the experiment control and the medium only served as a blank control.

SARS-CoV-2 [7] = experiment: Viral release assay; format: cell-based
[8] = Cytotoxicity MTT assay, VeroE6; format: cell-based; conditions: VeroE6 cells, 24 h at 37 °C, DMEM with 1% FBS, n = 3, read-out: 50% toxicity concentration (TC50)
Experimental: as §1

SARS-CoV-2 (B.1.1.63) [9] = experiment: Pre-exposure antiviral assay in hamsters; format: in vivo; conditions: compared with mock-treated hamsters
SARS-CoV-2 [10] = experiment: Viral RNA copies in VeroE6 cell lysate after pretreatment (RT-qPCR); format: cell-based; conditions: virus pretreated by 4H30 (25 μg/mL), DMEM-treated virus 50-fold, n = 4
[11] = mice; intranasal, three doses of 0.5 mg/kg within two days; compared with the PBS group; three mice in each group
spike-ACE2 binding = spike-ACE2 binding (Severe acute respiratory syndrome coronavirus 2, UniProt P0DTC2); experiment: ELISA of spike binding to ACE2; conditions: ACE2 (150 ng) coated on ELISA plate; n = 6
SARS-CoV-2 (B.1.1.63) [12] = experiment: Post-exposure antiviral assay in hamsters, B.1.1.63; conditions: hamster, in vivo
MERS-CoV = conditions: 18 h
[13] = ELISA binding to chondroitin sulfate; conditions: CS 300, 75 ng coated on ELISA plate; detection by anti-HBD2; compared with BSA; n = 4
SARS-CoV-2 [14] = experiment: Plaque assay after 10,000-fold dilution of treated virus; format: cell-based
[15] = ELISA binding to heparan sulfate; conditions: HS 300, 75 ng coated on ELISA plate; detection by anti-HBD2; compared with BSA; n = 4
[16] = intranasal, three doses of 0.5 mg/kg within two days; 4 days post-inoculation
SARS-CoV-2 [17] = experiment: Viral attachment assay at 4 °C (RT-qPCR); format: cell-based
SARS-CoV-2 B.1.1.63 = conditions: B.1.1.63, 18 h

For `CC[C@H](C)[C@H](NC(=O)[C@H](C)NC(=O)CN)C(=O)N[C@@H](CS)C(=O)N[C@@H](Cc1c[nH]cn1)C(=O)N1CCC[C@H]1C(=O)N[C@H](C(=O)N[C@@H](Cc1ccccc1)C(=O)N[C@@H](CS)C(=O)N1CCC[C@H]1C(=O)N[C@@H](CCCNC(=N)N)C(=O)N[C@@H](CCCNC(=N)N)C(=O)N[C@@H](Cc1ccc(O)cc1)C(=O)N[C@@H](CCCCN)C(=O)N[C@@H](CCC(N)=O)C(=O)N[C@H](C(=O)NCC(=O)N[C@H](C(=O)N[C@@H](CS)C(=O)NCC(=O)N[C@@H](CC(C)C)C(=O)N1CCC[C@H]1C(=O)NCC(=O)N[C@H](C(=O)N[C@@H](CCCCN)C(=O)N[C@@H](CS)C(=O)N[C@@H](CS)C(=O)N[C@@H](CCCCN)C(=O)N[C@@H](CCCCN)C(=O)N1CCC[C@H]1C(=O)O)[C@@H](C)O)[C@@H](C)O)[C@@H](C)CC)C(C)C` [H30] (H-GAICHPVFCPRRYKQIGTCGLPGTKCCKKP-OH; N-terminus and C-terminus assumed), the “50% inhibitory concentration IC50” value (SARS-CoV-2 (HKU001a)) was > 25 µg/mL and the “antiviral activity in the low salt condition” value (SARS-CoV-2 (HKU001a)) was “more effective in the low salt condition”.
In the case of `CO/C1=C\C(C)=C\[C@@H](C)[C@@H](O)[C@@H](C)C/C(C)=C/C=C/[C@H](OC)[C@@H]([C@@H](C)[C@@H](O)[C@H](C)[C@@]2(O)C[C@@H](O)[C@H](C)[C@@H](C(C)C)O2)OC1=O` [bafilomycin A1], the “inhibition of spike-ACE2-mediated cell fusion, 293T-Spike + 293T-ACE2” value (shortened to “inhibition … 293T-Spike + 293T-ACE2”) [1] was “inhibition”, the “inhibition of cell-cell fusion, 293T-Spike + Calu-3” value (“inhibition of cell-cell fusion” for short) [2] was “could not inhibit” and the “cell fusion size, 293T-Spike + Calu-3” value ([2]; 4H30 125 μg/mL, BA1 50 nM, 6-8 h post-coculture, non-fusion cell size ~10 μm) was > 40 μm. For the same molecule, the “inhibition of endosomal acidification in live cells” value [3] was “could inhibit”.
For `CN(C)C(=O)COC(=O)Cc1ccc(OC(=O)c2ccc(NC(=N)N)cc2)cc1` [camostat], the “inhibition of cell-cell fusion” value [2] is listed as “could show the inhibition” and the “inhibition of SARS-CoV-2 in hamsters by camostat alone” value (SARS-CoV-2 [4]) is listed as “not significantly inhibited”.
With `CCC(CC)COC(=O)[C@H](C)N[P@](=O)(OC[C@H]1O[C@@](C#N)(c2ccc3c(N)ncnn23)[C@H](O)[C@@H]1O)Oc1ccccc1` [remdesivir, reference compound] the “inhibition … 293T-Spike + 293T-ACE2” value [1] was “without inhibition”, the “syncytia formation in hamster lungs” value [5] was “syncytia could be easily observed” and the “inhibition of viral replication in hamster lungs (PFU/lung)” value [5] was 33 fold. For the same molecule, the lung inflammation [5] was “could reduce lung inflammation”.
In the case of “I: GAICHPVFCPRRYKQIGTCGLPGTKCCKKPKK / II: GAICHPVFCPRRYKQIGTCGLPGTKCCKKPK / III: GAICHPVFCPRRYKQIGTCGLPGTKCCKKP / IV: GAICHPVFCPRRYKQIGTCGLPGTKCCKKP (amide I:31-IV:C, I:32-II:C, II:31-III:C; cysteines drawn unpaired) [4H30]”, the “inhibition … 293T-Spike + 293T-ACE2” value [1] was “could inhibit the fusion”, the CC50 at 24 h [6] was > 400 µg/mL and the “syncytia formation in hamster lungs” value [5] was “could reduce the syncytia formation”. For the same molecule, the “inhibition of viral replication in hamster lungs (PFU/lung)” value [5] was 9 fold, the lung inflammation [5] was “could reduce lung inflammation” and the “inhibition of viral release” value (SARS-CoV-2 [7]) was “significantly inhibit viral release”. For the same molecule, the CC50 at 24 h [8] was > 400 µg/mL, the “inhibition of cell-cell fusion” value ([2]; 4H30 125 μg/mL, bafilomycin A1 50 nM, camostat 100 μg/mL, 6-8 h post-coculture) was “could not inhibit” and the “syncytia in bronchial epithelium” value (SARS-CoV-2 (B.1.1.63) [9]) was “reduced”. The “viral RNA increase at 6 hpi compared with viral load at 1 hpi” value (SARS-CoV-2 [10]) was “less than threefold”, the “lung histopathology and body weight changes for 40 days” value [11] was “no significant histopathological and consistent body weight change” and the “effect on binding between the spike and ACE2” value (spike-ACE2 binding) was “did not directly affect the binding”. For the same molecule, the “inhibition of SARS-CoV-2 replication in lungs, post-exposure” value (SARS-CoV-2 (B.1.1.63) [12]) was “significantly inhibit”, the “50% inhibitory concentration IC50” value (SARS-CoV-2 (HKU001a)) was 0.59 µg/mL and the “antiviral activity in the low salt condition” value (SARS-CoV-2 (HKU001a)) was “significantly inhibited”. The IC50 (MERS-CoV) was 1.01 µg/mL, the “binding to chondroitin sulfate (CS)” value [13] was “effectively bind” and the “inhibition of infection after dilution of treated virus” value (SARS-CoV-2 [14]) was “significantly inhibit”. The “binding to heparan sulfate (HS)” value [15] was “effectively bind”, the “pathological and body weight changes in hamsters” value [16] was “did not cause significant pathological and body weight changes” and the “SARS-CoV-2 attachment to A549 (ACE2–) and Calu-3 (ACE2+) cells” value (SARS-CoV-2 [17]; cells treated with 12.5 μg/mL, attachment at 4 °C, compared with BSA- or DMEM-treated cells) was “significantly increased”. For the same molecule, the “SARS-CoV-2 attachment to VeroE6 cells” value (SARS-CoV-2 [17]; virus pre-mixed with 25 μg/mL for 1 hour, attachment at 4 °C for 1 hour, n = 4) was “increase”, the IC50 (SARS-CoV-2 B.1.1.63) was 0.48 µg/mL and the “inhibition of endosomal acidification in live cells” value [3] was “could inhibit”.
